Test results: ChEMBL document CHEMBL1201862, “PubChem BioAssay data set” (2004)
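Cells were grown in 96-well plates and exposed to each compound for 48 hours at five concentrations; endpoints were interpolated linearly between bracketing concentrations, or set to the highest concentration if not reached. Here, GI50 denotes the concentration required for 50% inhibition of growth.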 Activity calls are given as the source filed them. Cut-off read from the data, not from the text of the source: active = GI50 up to about 1.1 µM and inactive = higher.

Key:
Assay in all cases: growth of human tumour cells (NCI), 48 h
[1] = test system: UO-31
[2] = test system: OVCAR-4
[3] = test system: NCI/ADR-RES
[4] = test system: PC-3
[5] = test system: KM12
[6] = test system: SF-539
[7] = test system: TK-10
[8] = test system: SK-OV-3
[9] = test system: MDA-N
[10] = test system: U-251
[11] = test system: SK-MEL-2
[12] = test system: M14
[13] = test system: SK-MEL-28
[14] = test system: ACHN
[15] = test system: Malme-3M
[16] = test system: 786-0
[17] = test system: HOP-62
[18] = test system: OVCAR-5
[19] = test system: HL-60
[20] = test system: DU-145

Measured: GI50

O=c1c2cc(S(=O)(=O)Nc3c(Cl)cccc3Cl)ccc2ncn1NS(=O)(=O)c1ccc2ccccc2c1
inactive: [1] 10.9 µM | [2] > 62.5 µM | [3] > 62.5 µM | [4] 12.8 µM | [5] 15.2 µM | [6] > 62.5 µM | [7] > 62.5 µM | [8] > 62.5 µM | [9] 41 µM | [10] > 62.5 µM | [11] 20 µM | [12] > 62.5 µM | [13] > 62.5 µM | [14] > 62.5 µM | [15] > 62.5 µM | [16] > 62.5 µM | [17] 13 µM | [18] 12.6 µM | [19] 20.2 µM | [20] 42.9 µM

O=C1c2c(Br)sc(Br)c2[C@@H](Cl)[C@H]1Cl
inactive: [1] 20.2 µM | [2] 18.2 µM | [3] 33.1 µM | [4] 18.7 µM | [5] 17.2 µM | [6] 12.5 µM | [7] 29 µM | [8] 19.4 µM | [9] 11 µM | [10] 14.5 µM | [11] 18.9 µM | [12] 19.7 µM | [13] 23.3 µM | [14] 19.2 µM | [15] 19.1 µM | [16] 24.5 µM | [17] 17.9 µM | [18] 20.8 µM | [19] 3.27 µM | [20] 18.7 µM

CCCCc1c2c(nc3c1CCC/C3=C\c1ccccc1)C(=O)C(CN(C)C)CC2 (stereo not given)
inactive: [1] 18.9 µM | [2] 14.3 µM | [3] 29.3 µM | [4] 14.1 µM | [5] 16.9 µM | [6] 20.7 µM | [7] 15.7 µM | [8] 18.5 µM | [9] 7.28 µM | [10] 16.6 µM | [11] 20.2 µM | [12] 17.4 µM | [13] 14.8 µM | [14] 15.9 µM | [15] 22.1 µM | [16] 10 µM | [17] 16.5 µM | [18] 18.2 µM | [19] 2.67 µM | [20] 15.6 µM
